Measurements from EP0829476B1, “6-Substituted acyclopyrimidine nucleoside derivatives and antiviral agent containing the same as active ingredient thereof” (MITSUBISHI CHEMICAL CORPORATION, priority 1989, dated 1991).

What was measured:
HIV = assay: Inhibitory activity for HIV infection: prevention of death of HIV-infected MT-4 cells, cell count after 5 days; type: cell-based; conditions: Human immunodeficiency virus 1, MT4, 120 h, 5 days of incubation at 37°C, concentration preventing the death of 50 % of the MT-4 cells
Method: Inhibitory activity for HIV infection
(§1) In RPMI 1640 DM culture medium containing 20 mM of Hepes buffer solution, 10 % fetal bovine serum and 20 µg/ml of gentamycin, 3 x 10^4 MT-4 cells (human T cell clone which is destroyed by the infection of HIV) were infected with HIV in an amount of 100 times as large as expected to cause 50 % infection of the cells. Immediately thereafter, a predetermined amount of sample was added to the culture medium using 50 mg/ml sample solutions in dimethyl sulfoxide and the cells were cultured at 37°C.
(§2) After 5 days of incubation, the number of existing cells was counted to determine the concentration of the compound for preventing the death of 50 % of the MT-4 cells. Separately, MT-4 cells were cultured in the same way as above except that they were not infected with HIV to determine the concentration of the compound at which 50 % of the MT-4 cells were destroyed.

[1] = Cytotoxicity: destruction of MT-4 cells not infected with HIV, cultured the same way; type: cell-based; conditions: human, 5 days of incubation, concentration at which 50 % of the MT-4 cells were destroyed, read-out: 50% cytotoxic concentration to MT-4 cells
Method: as §1, §2

With CCOCn1c(Sc2cc(C)cc(C)c2)c(CC)c(=O)[nH]c1=S [Compound 314] as the compound, how does the EC50 (HIV) read?
The EC50 was 0.004 µM.

What about the CC50 at 120 h [1] of the same compound?
The CC50 at 120 h was over 100 µM.

For CCCCn1c(-c2ccccc2)c(CC)c(=O)[nH]c1=S [Compound 220, 1-butyl-5-ethyl-6-phenylthiouracil], which EC50 (HIV) is on record?
The EC50 was 0.016 µM.

And the CC50 at 120 h [1]?
Its CC50 at 120 h is 45 µM.

Which CC50 at 120 h [1] does the source give for CCOCn1c(Cc2ccccc2)c(CC)c(=O)[nH]c1=O [Compound 427, 6-benzyl-1-ethoxymethyl-5-ethyluracil] here?
The CC50 at 120 h was 245 µM.

Which EC50 (HIV) does the source give for CCCOCn1c(Sc2ccccc2)c(C)c(=O)[nH]c1=O [Compound 38] here?
Its EC50 is 5.6 µM.

What about the CC50 at 120 h [1] of the same compound?
Its CC50 at 120 h is 147 µM.

For CC(=O)OCCOCn1c(Sc2ccccc2)c(C)c(=O)[nH]c1=S [Compound 1, 1-[(2-acetoxyethoxy)methyl]-6-phenylthio-2-thiothymine], which CC50 at 120 h [1] is on record?
Its CC50 at 120 h is 196 µM.

Which results are given for CCOCn1c(-c2ccccc2)c(CC)c(=O)[nH]c1=S [Compound 215, 1-ethoxymethyl-5-ethyl-6-phenylthiouracil]?
EC50 (HIV): 0.016 µM; CC50 at 120 h [1]: 133 µM

With CCOCn1c(Sc2ccccc2)c(CC)c(=O)[nH]c1=S [Compound 313, 1-ethoxymethyl-5-ethyl-6-phenylthio-2-thiouracil] as the compound, how does the CC50 at 120 h [1] read?
The CC50 at 120 h was 81 µM.
